Consider 17 compounds from US20230072421A1, “TARGETED RADIOPHARMACEUTICALS FOR THE DIAGNOSIS AND TREATMENT OF PROSTATE CANCER” (Bayer AS, priority 2019, published 2023).

The target of this experiment is T1, PSMA-expressing LNCaP cells (Homo sapiens, UniProt Q04609).
T1 construct: PSMA-expressing LNCaP cells; endogenous in cells; host or cells: LNCaP
Briefly: Binding competition assay against 3H-PSMA-617 on LNCaP cells. The protocol: Cells were incubated at 37° C. and 5% CO2 over night. […] After addition of the compounds in growth media the cells were swiveled slightly on a shaker mixing for 10 min followed by incubation for 2 h at 37° C., 5% C02. Following the incubation time the supernatant was removed by pipetting and cells were washed twice with ice cold PBS (total of 800 μl). Cells were lysed in 500 μl of 0.3M NaOH (PanReac AppliChem ITW Reagents) by vigorous shaking for 15 min and the cell lysated pipetted into scintillator tubes (S207-[…]® Scintillation Vials 6.5 ml #S207, Simport). In the following the wells were washed with 500 μl PBS and the washing PBS added to the corresponding samples in the sincitallator tubes. To each sample in the scintillator tubes 4 mL of Ultima Gold liquid scintillation cocktail (Sigma-Aldrich #L8286) was added and the samples let stand for at least 30 min. Thereafter radioactivity was counted in a Tri-Carb Liquid Scinzillation Analyzer (Perkin Elmer).

Setting [1] is: LNCaP cells, 10 nM 3H-PSMA-617, competing non-radiolabeled compound 10 nM, 2 h at 37° C., triplicates.
[2] abbreviates: LNCaP cells, 10 nM 3H-PSMA-617, competing non-radiolabeled compound 100 nM, 2 h at 37° C., triplicates.

T1 sequence (Q04609 whole entry): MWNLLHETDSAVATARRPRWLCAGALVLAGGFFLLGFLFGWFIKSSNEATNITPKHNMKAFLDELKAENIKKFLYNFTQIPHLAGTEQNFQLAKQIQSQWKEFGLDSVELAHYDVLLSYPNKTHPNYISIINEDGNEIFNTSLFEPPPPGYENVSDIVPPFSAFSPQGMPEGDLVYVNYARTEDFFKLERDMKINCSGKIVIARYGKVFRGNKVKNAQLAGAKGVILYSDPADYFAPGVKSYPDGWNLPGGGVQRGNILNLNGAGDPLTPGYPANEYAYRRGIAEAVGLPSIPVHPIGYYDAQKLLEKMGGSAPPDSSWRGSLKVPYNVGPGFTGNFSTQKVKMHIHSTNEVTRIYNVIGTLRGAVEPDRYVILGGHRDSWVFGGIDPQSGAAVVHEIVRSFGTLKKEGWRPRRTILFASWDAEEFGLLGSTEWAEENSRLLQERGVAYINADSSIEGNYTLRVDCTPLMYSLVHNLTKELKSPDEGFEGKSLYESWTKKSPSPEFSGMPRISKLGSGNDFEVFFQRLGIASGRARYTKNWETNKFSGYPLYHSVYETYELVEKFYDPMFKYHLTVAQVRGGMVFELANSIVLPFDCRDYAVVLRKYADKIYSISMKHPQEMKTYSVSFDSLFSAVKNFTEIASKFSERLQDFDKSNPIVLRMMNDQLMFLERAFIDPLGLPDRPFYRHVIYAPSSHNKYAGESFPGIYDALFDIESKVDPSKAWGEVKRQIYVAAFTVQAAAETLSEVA

The remaining activity is the signal under treatment as a percentage of the control signal. Consider `O=C(O)CC[C@H](NC(=O)N[C@@H](CCCCNC(=O)[C@@H](Cc1ccc2cnccc2c1)NC(=O)[C@H]1CC[C@H](CNC(=O)CN2CCN(CC(=O)O)CCN(CC(=O)O)CCN(CC(=O)O)CC2)CC1)C(=O)O)C(=O)O` [Example 44-B, (3R,10S,14S)-3-[(isoquinolin-6-yl)methyl]-1,4,12-trioxo-1-[(1r,4S)-4-({2-[4,7,10-tris(carboxymethyl)-1,4,7,10-tetraazacyclododecan-1-yl]acetamido}methyl)cyclohexyl]-2,5,11,13-tetraazahexadecane-10,14,16-tricarboxylic acid], for which, under setting [1], the remaining activity at 0.01 µM was 75%. Also, the remaining activity at 0.1 µM under setting [2] is 22%.
On the same counts, the results for `NC[C@H]1CC[C@H](C(=O)N[C@@H](Cc2cnc3ccccc3c2)C(=O)NCCCC[C@H](NC(=O)N[C@@H](CCC(=O)O)C(=O)O)C(=O)O)CC1` [Example 22-A, N^6—{N-[(1r,4S)-4-(aminomethyl)cyclohexane-1-carbonyl]-3-(quinolin-3-yl)-L-alanyl}-N^2-{[(1S)-1,3-dicarboxypropyl]carbamoyl}-L-lysine] are 113% and 40%.
For `Nc1ccc(-c2ccn(CC(=O)N[C@@H](Cc3ccc4ccccc4c3)C(=O)NCCCC[C@H](NC(=O)N[C@@H](CCC(=O)O)C(=O)O)C(=O)O)n2)cc1` [Example 28-A, (4S,11S,15S)-1-[3-(4-aminophenyl)-1H-pyrazol-1-yl]-4-[(naphthalen-2-yl)methyl]-2,5,13-trioxo-3,6,12,14-tetraazaheptadecane-11,15,17-tricarboxylic acid], under setting [1], the remaining activity at 0.01 µM is 107%. Further, under setting [2], the remaining activity at 0.1 µM worked out at 60%.
With `N[C@H]1CC[C@H](CNC(=O)N[C@@H](Cc2ccc3ccccc3c2)C(=O)NCCCC[C@H](NC(=O)N[C@@H](CCC(=O)O)C(=O)O)C(=O)O)CC1` [Example 40-A, (5S,12S,16S)-1-[(1r,4S)-4-aminocyclohexyl]-5-[(naphthalen-2-yl)methyl]-3,6,14-trioxo-2,4,7,13,15-pentaazaoctadecane-12,16,18-tricarboxylic acid], under setting [1], the remaining activity at 0.01 µM amounted to 87%. Besides, the remaining activity at 0.1 µM under setting [2] stood at 62%.
Take `O=C(O)CC[C@H](NC(=O)N[C@@H](CCCCNC(=O)[C@H](Cc1ccc2ccccc2c1)NC(=O)c1ccc(CNC(=O)CN2CCN(CC(=O)O)CCN(CC(=O)O)CCN(CC(=O)O)CC2)cc1)C(=O)O)C(=O)O` [Example 24-B, (3S,10S,14S)-3-[(naphthalen-2-yl)methyl]-1,4,12-trioxo-1-[4-({2-[4,7,10-tris(carboxymethyl)-1,4,7,10-tetraazacyclododecan-1-yl]acetamido}methyl)phenyl]-2,5,11,13-tetraazahexadecane-10,14,16-tricarboxylic acid]: the remaining activity at 0.01 µM under setting [1] turned out to be 59%. The remaining activity at 0.1 µM under setting [2] turned out to be 6%.
Take `O=C(O)CC[C@@H](NC(=O)N[C@@H](CCCCNC(=O)[C@H](Cc1ccc2ccccc2c1)NC(=O)[C@H]1CC[C@H](CNC(=O)CN2CCN(CC(=O)O)CCN(CC(=O)O)CCN(CC(=O)O)CC2)CC1)C(=O)O)C(=O)O` [Example 1-B-D, (3S,10S,14R)-3-[(naphthalen-2-yl)methyl]-1,4,12-trioxo-1-[(1r,4S)-4-({2-[4,7,10-tris(carboxymethyl)-1,4,7,10-tetraazacyclododecan-1-yl]acetamido}methyl)cyclohexyl]-2,5,11,13-tetraazahexadecane-10,14,16-tricarboxylic acid]: the remaining activity at 0.01 µM under setting [1] came out at 80%. Further, under setting [2], the remaining activity at 0.1 µM is 78%.
For `O=C(O)CC[C@H](NC(=O)N[C@@H](CCCCNC(=O)[C@H](Cc1ccc2ccccc2c1)NC(=O)[C@H]1CC[C@H](CNC(=O)COCC(=O)NCCOCCOCCOCCOCCOCCOCCOCCOCCOCCOCCOCCNC(=O)COCC(=O)Nc2ccc(CC(CN(CCNC(=O)c3ccn(CCO)c(=O)c3O)CCNC(=O)c3ccn(CCO)c(=O)c3O)CN(CCNC(=O)c3ccn(CCO)c(=O)c3O)CCNC(=O)c3ccn(CCO)c(=O)c3O)cc2)CC1)C(=O)O)C(=O)O` [Example 1-PEG], the “% remaining 3H-PSMA-617 @ 10 nM (mean)” value under setting [1] turned out to be 80%. The “% remaining 3H-PSMA-617 @ 100 nM (mean)” value under setting [2] stood at 41%.
On to `Cc1cc(C(=O)NCCN(CCCN(CCNC(=O)c2cc(C)n(CC(=O)O)c(=O)c2O)CCNC(=O)c2cc(C)n(CC(=O)NCc3ccc(C(=O)N[C@@H](Cc4ccc5ccccc5n4)C(=O)NCCCC[C@H](NC(=O)N[C@@H](CCC(=O)O)C(=O)O)C(=O)O)nc3)c(=O)c2O)CCNC(=O)c2cc(C)n(CC(=O)O)c(=O)c2O)c(O)c(=O)n1CC(=O)O` [34-C monomer], for which the remaining activity at 0.01 µM under setting [1] is 58%. Moreover, under setting [2], the remaining activity at 0.1 µM came to 10%.
On to `NCc1ccc(C(=O)N[C@@H](Cc2ccc3ccccc3c2)C(=O)NCCCC[C@H](NC(=O)N[C@@H](CCC(=O)O)C(=O)O)C(=O)O)nc1` [Example 25-A, (3S,10S,14S)-1-[5-(aminomethyl)pyridin-2-yl]-3-[(naphthalen-2-yl)methyl]-1,4,12-trioxo-2,5,11,13-tetraazahexadecane-10,14,16-tricarboxylic acid], for which the remaining activity at 0.01 µM under setting [1] was found to be 93%. The remaining activity at 0.1 µM under setting [2] is 21%. Moreover, the “competition against 3H-PSMA-617 on PSMA-expressing LNCaP cells (in words)” value (comparison between examples) was “improved competition in comparison to the cyclohexyl examples 1-A and 1-B”.
`NC[C@H]1CC[C@H](C(=O)N[C@H](Cc2ccc3ccncc3c2)C(=O)NCCCC[C@H](NC(=O)N[C@@H](CCC(=O)O)C(=O)O)C(=O)O)CC1` [Example 42-A, (3R,10S,14S)-1-[(1r,4S)-4-(aminomethyl)cyclohexyl]-3-[(isoquinolin-7-yl)methyl]-1,4,12-trioxo-2,5,11,13-tetraazahexadecane-10,14,16-tricarboxylic acid]: the remaining activity at 0.01 µM under setting [1] was 86%. For the same compound, the remaining activity at 0.1 µM under setting [2] is 78%.
`Cc1ccccc1C[C@H](NC(=O)[C@H]1CC[C@H](CN)CC1)C(=O)NCCCC[C@H](NC(=O)N[C@@H](CCC(=O)O)C(=O)O)C(=O)O` [Example 12-A, N^6—{N-[(1r,4S)-4-(aminomethyl)cyclohexane-1-carbonyl]-2-methyl-L-phenylalanyl}-N^2-{[(1S)-1,3-dicarboxypropyl]carbamoyl}-L-lysine]: under setting [1], the remaining activity at 0.01 µM came out at 158%. For the same compound, the remaining activity at 0.1 µM under setting [2] was 128%.
For `NC[C@H]1CC[C@H](C(=O)N[C@H](Cc2csc3ccc(Cl)cc23)C(=O)NCCCC[C@H](NC(=O)N[C@@H](CCC(=O)O)C(=O)O)C(=O)O)CC1` [Example 41-A, N^6—{N-[(1r,4S)-4-(aminomethyl)cyclohexane-1-carbonyl]-3-(5-chloro-1-benzothiophen-3-yl)-D-alanyl}-N^2-{[(1S)-1,3-dicarboxypropyl]carbamoyl}-L-lysine] the same measures were 82% and 61%.
Turning to `O=C(O)CC[C@H](NC(=O)N[C@@H](CCCCNC(=O)[C@@H](Cc1ccc2ccncc2c1)NC(=O)[C@H]1CC[C@H](CNC(=O)CN2CCN(CC(=O)O)CCN(CC(=O)O)CCN(CC(=O)O)CC2)CC1)C(=O)O)C(=O)O` [Example 42-B, (3R,10S,14S)-3-[(isoquinolin-7-yl)methyl]-1,4,12-trioxo-1-[(1r,4S)-4-({2-[4,7,10-tris(carboxymethyl)-1,4,7,10-tetraazacyclododecan-1-yl]acetamido}methyl)cyclohexyl]-2,5,11,13-tetraazahexadecane-10,14,16-tricarboxylic acid], under setting [1], the remaining activity at 0.01 µM turned out to be 88%. Moreover, the remaining activity at 0.1 µM under setting [2] came to 34%.
For `NC[C@H]1CC[C@H](C(=O)N[C@@H](CCCCNC(=O)c2cccnc2)C(=O)NCCCC[C@H](NC(=O)N[C@@H](CCC(=O)O)C(=O)O)C(=O)O)CC1` [Example 9-A, N^6—{N^2-[(1r,4S)-4-(aminomethyl)cyclohexane-1-carbonyl]-N^6-(pyridine-3-carbonyl)-L-lysyl}-N^2-{[(1S)-1,3-dicarboxypropyl]carbamoyl}-L-lysine] the same measures were 147% and 114%.
On the same counts, the results for `CC(C)(C)c1ccc(C[C@H](NC(=O)[C@H]2CC[C@H](CN)CC2)C(=O)NCCCC[C@H](NC(=O)N[C@@H](CCC(=O)O)C(=O)O)C(=O)O)cc1` [Example 8-A, N^6—{N-[(1r,4S)-4-(aminomethyl)cyclohexane-1-carbonyl]-4-tert-butyl-L-phenylalanyl}-N^2-{[(1S)-1,3-dicarboxypropyl]carbamoyl}-L-lysine] are 92% and 111%.
Turning to `NCc1ccc(C(=O)N[C@@H](Cc2ccc3ccccc3c2)C(=O)NCCCC[C@H](NC(=O)N[C@@H](CCC(=O)O)C(=O)O)C(=O)O)cc1` [Example 24-A, (3S,10S,14S)-1-[4-(aminomethyl)phenyl]-3-[(naphthalen-2-yl)methyl]-1,4,12-trioxo-2,5,11,13-tetraazahexadecane-10,14,16-tricarboxylic acid], under setting [1], the remaining activity at 0.01 µM came to 66%. Also, the remaining activity at 0.1 µM under setting [2] was 16%.
On the same counts, the results for `O=C(O)CC[C@H](NC(=O)N[C@@H](CCCCNC(=O)[C@H](Cc1ccc2ccccc2c1)NC(=O)Cn1ccc(-c2ccc(NC(=O)CN3CCN(CC(=O)O)CCN(CC(=O)O)CCN(CC(=O)O)CC3)cc2)n1)C(=O)O)C(=O)O` [Example 28-B, (4S,11S,15S)-4-[(naphthalen-2-yl)methyl]-2,5,13-trioxo-1-[3-(4-{2-[4,7,10-tris(carboxymethyl)-1,4,7,10-tetraazacyclododecan-1-yl]acetamido}phenyl)-1H-pyrazol-1-yl]-3,6,12,14-tetraazaheptadecane-11,15,17-tricarboxylic acid] are 33% and 90%.
